Experimental data taken from US11510875B2, “Adjuvant formulations comprising TLR4 agonists and methods of using the same” (priority 2012, dated 2022).

Columns and labels:
PfCelTOS [1] = format: in vivo, Plasmodium falciparum; conditions: BALB/c mice; SE dose 0.5%-2% experiment; GLA- or Montanide-containing vaccines
PfCelTOS [2] = experiment: Antibody endpoint titers (IgG, IgG1, IgG2a) after immunization with PfCelTOS vaccine compositions; conditions: BALB/c mice; SE dose 0.02%-2% experiment; GLA (SE or AF) compared to same vaccine composition without GLA
Procedure: On the day of immunization, the emulsion was diluted with PBS to the specified oil concentrations and mixed with antigen and GLA-AF (where applicable). […] Throughout the manuscript the emulsion dose is referred to as the % v/v of oil in the final vaccine formulation; the ratio of oil to emulsifier is kept constant at all doses.
Endpoint titer was determined using Prism (GraphPad Software, La Jolla, Calif.) following a sigmoidal fit (variable slope) of the values determined at dilution, with the endpoint titer corresponding to a cutoff value (C) determined as described previously [10] with C=X+SDf, where X is the average and SD is the standard deviation of the negative sera control plate, and f is the multiplier at the 99.9% confidence level. A cutoff value of 0.1 OD was assigned if the cutoff value as determined above was less than 0.1 OD. On rare occasions, individual plate wells registered an abnormally high reading near the highest dilutions. These were excluded from the sigmoidal fit by employing the Grubb's test on the suspect value, comparing to the 4 dilutions surrounding the dilution in question at the 99% confidence level [11].
BALB/c mice were immunized 3 times with PfCelTOS vaccine compositions with 3 weeks between injections.

In the case of glucopyranosyl lipid adjuvant [GLA], the antibody-secreting plasma cells (PfCelTOS [1]) is reported as “Higher numbers” and the IgG2a response (PfCelTOS [2]) is reported as “stronger”.
